Experimental data from patent publication US20150315188A1, “COMPOUNDS AND METHODS FOR TREATMENT OF HYPERTENSION” (MEDIVATION TECHNOLOGIES, INC., priority 2012, published 2015).
pIC50, pKi: −log10 of the molar value.

How the values were obtained:
[1] = target: T1, Human adrenergic α2B receptor (Homo sapiens, UniProt P18089); assay: β-Arrestin GPCR functional assay, adrenergic α2B (Protocol B); type: cell-based; conditions: for pIC50: β-arrestin, antagonist vs nor-epinephrine EC80, read-out: IC50 Adrenergic α2B
T1 sequence (P18089 1-450): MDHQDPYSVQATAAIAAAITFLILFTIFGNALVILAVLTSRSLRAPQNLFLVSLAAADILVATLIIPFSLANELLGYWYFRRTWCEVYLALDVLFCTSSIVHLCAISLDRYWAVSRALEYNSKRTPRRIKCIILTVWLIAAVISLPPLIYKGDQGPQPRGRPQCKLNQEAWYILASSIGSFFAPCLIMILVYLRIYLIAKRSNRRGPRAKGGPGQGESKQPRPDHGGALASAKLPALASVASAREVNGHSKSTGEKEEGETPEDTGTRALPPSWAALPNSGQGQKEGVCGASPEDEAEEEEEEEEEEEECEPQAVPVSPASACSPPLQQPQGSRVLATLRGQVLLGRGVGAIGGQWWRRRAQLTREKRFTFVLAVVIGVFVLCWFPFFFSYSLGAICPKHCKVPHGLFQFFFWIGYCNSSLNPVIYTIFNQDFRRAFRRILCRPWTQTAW
Summary of the method: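 CHO cells overexpressing human α2B (PathHunter β-arrestin), 12,000 per well, 24 h at 37° C; compounds in 1% DMSO 30 min, then 50 nM norepinephrine (EC80) 90 min at 37° C.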

[2] = target: T2, Human adrenergic α1B receptor (Homo sapiens, UniProt P35368); assay: Radioligand binding, adrenergic α1B (Protocol Group B); parameters: purchased Milipore (Millipore); conditions: for inhibition at 0.1 µM / Percentage inhibition of ligand binding, Adrenergic α1B (0.1 μM): 0.1 μM compound; for inhibition at 0.1 µM / inhibition at 0.3 µM / pKi / Percentage inhibition of ligand binding, Adrenergic α1B (0.1 μM) / Percentage inhibition of ligand binding, Adrenergic α1B (0.3 μM): Protocol Group B; for inhibition at 0.1 µM: read-out: Percentage inhibition of ligand binding, Adrenergic α1B (0.1 μM); for inhibition at 0.3 µM / Percentage inhibition of ligand binding, Adrenergic α1B (0.3 μM): 0.3 μM compound; for inhibition at 0.3 µM: read-out: Percentage inhibition of ligand binding, Adrenergic α1B (0.3 μM); for pKi: estimated Ki; for inhibition at 3.2 µM: 3.2 μM compound, read-out: Percentage inhibition of ligand binding, Adrenergic α1B, 3.2 μM
T2 sequence (P35368 1-520): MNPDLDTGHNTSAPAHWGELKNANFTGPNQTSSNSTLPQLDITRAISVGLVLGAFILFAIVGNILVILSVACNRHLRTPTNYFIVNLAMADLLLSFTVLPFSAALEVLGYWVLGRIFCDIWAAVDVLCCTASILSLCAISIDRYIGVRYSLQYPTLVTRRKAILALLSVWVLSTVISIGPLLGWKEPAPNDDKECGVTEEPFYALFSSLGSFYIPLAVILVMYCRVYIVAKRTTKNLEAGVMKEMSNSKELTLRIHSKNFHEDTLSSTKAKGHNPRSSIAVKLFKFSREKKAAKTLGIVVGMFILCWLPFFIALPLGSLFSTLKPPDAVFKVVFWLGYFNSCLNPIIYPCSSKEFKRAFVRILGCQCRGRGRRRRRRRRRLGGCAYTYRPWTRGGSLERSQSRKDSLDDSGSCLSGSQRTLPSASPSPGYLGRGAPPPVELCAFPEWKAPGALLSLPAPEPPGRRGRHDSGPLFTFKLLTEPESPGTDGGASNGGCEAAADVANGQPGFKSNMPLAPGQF
Summary of the method: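 Values are percent inhibition of specific [3H]prazosin (0.3 nM) binding or estimated Ki, from filtration counting. Human α1B recombinant membranes, Tris-HCl pH 7.4 buffer with MgCl2 and EDTA, 60 min at 25 °C, 1% DMSO vehicle; 10 μM prazosin defined nonspecific binding.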

[3] = target: T3, Human adrenergic α2A receptor (Homo sapiens, UniProt P08913); assay: Radioligand binding, adrenergic α2A (Protocol Group B); parameters: purchased Milipore (Millipore); conditions: for Percentage inhibition of ligand binding, Adrenergic α2A (0.1 μM) / inhibition at 0.1 µM: 0.1 μM compound; for Percentage inhibition of ligand binding, Adrenergic α2A (0.1 μM) / inhibition at 0.3 µM / pKi / Percentage inhibition of ligand binding, Adrenergic α2A (0.3 μM) / inhibition at 0.1 µM: Protocol Group B; for inhibition at 0.3 µM / Percentage inhibition of ligand binding, Adrenergic α2A (0.3 μM): 0.3 μM compound; for inhibition at 0.3 µM: read-out: Percentage inhibition of ligand binding, Adrenergic α2A (0.3 μM); for pKi: estimated Ki; for inhibition at 10 µM: 10 μM compound, read-out: Percentage inhibition of ligand binding, Adrenergic α2A, 10 μM; for inhibition at 0.1 µM: read-out: Percentage inhibition of ligand binding, Adrenergic α2A (0.1 μM)
T3 sequence (P08913 1-465): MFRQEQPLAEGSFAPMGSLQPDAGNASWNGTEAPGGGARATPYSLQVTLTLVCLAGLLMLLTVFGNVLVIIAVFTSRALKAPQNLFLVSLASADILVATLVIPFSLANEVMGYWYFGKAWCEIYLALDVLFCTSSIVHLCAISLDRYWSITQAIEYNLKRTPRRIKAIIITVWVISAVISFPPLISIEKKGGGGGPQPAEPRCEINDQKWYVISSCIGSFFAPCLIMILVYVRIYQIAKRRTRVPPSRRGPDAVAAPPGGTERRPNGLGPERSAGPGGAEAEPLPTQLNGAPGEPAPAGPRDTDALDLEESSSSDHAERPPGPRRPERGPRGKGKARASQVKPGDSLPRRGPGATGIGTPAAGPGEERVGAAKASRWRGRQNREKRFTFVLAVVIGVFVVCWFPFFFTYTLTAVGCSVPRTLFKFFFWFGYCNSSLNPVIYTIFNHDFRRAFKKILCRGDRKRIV
Summary of the method: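 Compounds (1% DMSO vehicle, various concentrations) competed against 2 nM [^3H]MK-912 on recombinant receptor membranes for 60 min at 25° C, Tris-HCl pH 7.4 buffer with Mg2+, Ca2+, BSA. Bound radioligand filtered and counted; 10 μM rauwolscine set nonspecific binding. Values: percent inhibition of specific binding or estimated Ki.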

[4] = 10 nM compound, nor-epinephrine at EC80 (50 nM)
[5] = 30 nM compound, nor-epinephrine at EC80 (50 nM)
[6] = 0.1 μM compound, nor-epinephrine at EC80 (50 nM)
[7] = 3.2 nM compound, concentration series, 0.0032 µM
[8] = 10 nM compound, concentration series, 0.01 µM
[9] = 0.032 μM compound, concentration series, 0.032 µM
[10] = 0.32 μM compound, concentration series, 0.32 µM
[11] = 1 μM compound, concentration series, 1 µM
[12] = 30 nM compound, nor-epinephrine at EC80 (50 nM), read-out: Percentage inhibition, Adrenergic α2B
[13] = 0.1 μM compound, nor-epinephrine at EC80 (50 nM), read-out: Percentage inhibition, Adrenergic α2B

Compound	pIC50 [1]	inhibition at 0.1 µM [2]	inhibition at 0.3 µM [2]	pKi [2]	Percentage inhibition of ligand binding, Adrenergic α2A (0.1 μM) [3]	inhibition at 0.3 µM [3]	pKi [3]	Percentage inhibition of ligand binding, Adrenergic α1B (0.1 μM) [2]	Percentage inhibition of ligand binding, Adrenergic α1B (0.3 μM) [2]	Percentage inhibition of ligand binding, Adrenergic α2A (0.3 μM) [3]	Percentage inhibition, Adrenergic α2B [1, 4]	Percentage inhibition, Adrenergic α2B [1, 5]	Percentage inhibition, Adrenergic α2B [1, 6]	inhibition at 0.1 µM [3]	also measured
Cc1cc(F)cc2c3c(n(CC(O)c4ccncc4)c12)CCN1CCCC31 (single isomer, unassigned) [136a]	7.97	31%	70%	7.83	69%	87%	7.84	–	–	–	–	–	–	–	–
Cc1cc(C)c2c(c1)c1c(n2CC(C)(O)c2cccnc2)CCN2CCCC12 (single isomer, unassigned) [44b]	8.00	–	–	7.85	89%	–	8.21	69%	85%	98%	–	–	–	–	–
Cc1cc(C)c2c(c1)c1c(n2CC(C)(O)c2ccncc2)CCN2CCCC12 (single isomer, unassigned) [19b]	7.28	–	–	7.43	51%	–	7.44	60%	85%	77%	15%	34%	86%	–	Percentage inhibition of ligand binding, Adrenergic α1B, 1 nM ([2]; 1 nM compound, concentration series, 0.001 µM): 3%; Percentage inhibition of ligand binding, Adrenergic α1B, 3.2 nM [2, 7]: 6%; Percentage inhibition of ligand binding, Adrenergic α1B, 10 nM [2, 8]: 1%; Percentage inhibition of ligand binding, Adrenergic α1B, 0.032 μM [2, 9]: 15%; Percentage inhibition of ligand binding, Adrenergic α1B, 0.32 μM [2, 10]: 76%; Percentage inhibition of ligand binding, Adrenergic α1B, 1 μM [2, 11]: 87%; inhibition at 3.2 µM ([2]; concentration series): 92%; Percentage inhibition of ligand binding, Adrenergic α2A, 3.2 nM [3, 7]: 12%; Percentage inhibition of ligand binding, Adrenergic α2A, 10 nM [3, 8]: 4%; Percentage inhibition of ligand binding, Adrenergic α2A, 0.032 μM [3, 9]: 27%; Percentage inhibition of ligand binding, Adrenergic α2A, 0.32 μM [3, 10]: 67%; Percentage inhibition of ligand binding, Adrenergic α2A, 1 μM [3, 11]: 84%; Percentage inhibition of ligand binding, Adrenergic α2A, 3.2 μM ([3]; 3.2 μM compound, concentration series, 3.2 µM): 95%; inhibition at 10 µM ([3]; concentration series): 100%
Cc1cc2c3c(n(CC(C)(O)c4ccncc4)c2cc1Cl)CCN1CCCC31 (single isomer, unassigned) [50a]	7.85	89%	96%	8.43	–	83%	8.17	–	–	–	–	–	–	72%	–
Cc1ccc2c(c1)c1c(n2CC(O)c2ccncc2)CC[N+]2([O-])CCCC12 (centres unmarked) [compound 23, 7-(2-hydroxy-2-(pyridin-4-yl)ethyl)-10-methyl-1,2,3,4,5,6,7,11c-octahydroindolizino[7,8-b]indole 4-oxide]	6.42	53%	65%	7.25	–	64%	7.68	–	–	–	–	–	–	55%	inhibition at 0.01 µM ([1]; 10 nM compound, nor-epinephrine at EC80 (50 nM), read-out: Percentage inhibition, Adrenergic α2B): 10%; inhibition at 0.03 µM [1, 12]: 12%; inhibition at 0.1 µM [1, 13]: 27%; inhibition at 0.0032 µM ([2]; 3.2 nM compound, concentration series, read-out: Percentage inhibition of ligand binding, Adrenergic α1B, 3.2 nM): 21%; inhibition at 0.01 µM ([2]; 10 nM compound, concentration series, read-out: Percentage inhibition of ligand binding, Adrenergic α1B, 10 nM): 22%; inhibition at 0.03 µM ([2]; 0.03 μM compound, concentration series, read-out: Percentage inhibition of ligand binding, Adrenergic α1B, 0.03 μM): 32%; inhibition at 0.32 µM ([2]; 0.32 μM compound, concentration series, read-out: Percentage inhibition of ligand binding, Adrenergic α1B, 0.32 μM): 64%; inhibition at 1 µM ([2]; 1 μM compound, concentration series, read-out: Percentage inhibition of ligand binding, Adrenergic α1B, 1 μM): 72%; inhibition at 3.2 µM ([2]; concentration series): 85%; inhibition at 10 µM ([2]; 10 μM compound, concentration series, read-out: Percentage inhibition of ligand binding, Adrenergic α1B, 10 μM): 93%; inhibition at 0.0032 µM ([3]; 3.2 nM compound, concentration series, read-out: Percentage inhibition of ligand binding, Adrenergic α2A, 3.2 nM): 14%; inhibition at 0.01 µM ([3]; 10 nM compound, concentration series, read-out: Percentage inhibition of ligand binding, Adrenergic α2A, 10 nM): 21%; inhibition at 0.03 µM ([3]; 0.03 μM compound, concentration series, read-out: Percentage inhibition of ligand binding, Adrenergic α2A, 0.03 μM): 37%; inhibition at 0.32 µM ([3]; 0.32 μM compound, concentration series, read-out: Percentage inhibition of ligand binding, Adrenergic α2A, 0.32 μM): 67%; inhibition at 1 µM ([3]; 1 μM compound, concentration series, read-out: Percentage inhibition of ligand binding, Adrenergic α2A, 1 μM): 76%; inhibition at 3.2 µM ([3]; 3.2 μM compound, concentration series, read-out: Percentage inhibition of ligand binding, Adrenergic α2A, 3.2 μM): 88%; inhibition at 10 µM ([3]; concentration series): 92%
Cc1ccc2c(c1)c1c(n2CC(C)(O)c2ccncc2)CCN2CCCC12 (single isomer, unassigned) [13b]	7.92	–	–	7.46	–	–	7.89	–	–	–	4%	30%	102%	–	–
Cc1ccc2c(c1)c1c(n2CC(C)(O)c2ccncc2)CCN2CCCC12 (single isomer, unassigned) [13a]	7.52	–	–	8.00	–	–	7.30	–	–	–	9%	–	–	–	inhibition at 0.03 µM [1, 12]: 29%; inhibition at 0.1 µM [1, 13]: 88%
Cc1cc(C)c2c(c1)c1c(n2CC(C)(O)c2cccnc2)CCN2CCCC12 (single isomer, unassigned) [44a]	6.75	–	71%	7.20	47%	–	6.94	40%	–	70%	–	–	–	–	–
Cc1cc(F)c2c(c1)c1c(n2CC(C)(O)c2cccnc2)CCN2CCCC12 (single isomer, unassigned) [79b]	7.47	28%	57%	–	–	74%	7.32	–	–	–	–	–	–	55%	–
Cc1ccc2c(c1)c1c(n2CC(O)c2ccncc2F)CCN2CCCC12 (single isomer, unassigned) [14b]	7.85	–	–	8.35	80%	–	8.17	85%	95%	89%	11%	93%	97%	–	–
